# Experimental data as given in US20200197544A1, “JCV IMAGING METHODS AND COMPOSITIONS” (BIOGEN MA Inc., priority 2017, published 2020).
# “Also recorded” adds a separate entry of the source.
# System: JCV-infected human astrocytes
# Test: ^3H-FLT uptake in uninfected and JCV-infected human astrocytes (TK1 activity)
# Assay type: cell-based
# Conditions: JCV-infected astrocytes compared to uninfected astrocytes; uptake as a measure of TK1 activity
# Procedure: The activity of TK1 in uninfected and JCV-infected human astrocytes was determined by analyzing the cellular uptake of ^3H-FLT, a radiolabeled TK1 substrate.
smiles,measurement,value
Cc1cn([C@H]2C[C@H](F)[C@@H](CO)O2)c(=O)[nH]c1=O [^3H-FLT],^3H-FLT uptake,"higher in JCV-infected astrocytes as compared to uninfected astrocytes; also recorded: elevated levels of TK1 activity, as determined by uptake of ^3H-FLT, compared to uninfected cells"
